# Laboratory results: US9757408B2 (Hayashibara Co., Ltd., priority 2010, dated 2017)
# Marks after values point to notes of the source that are not given here.
# Assays:
# [1] = D-MEM medium, absence of human serum, 100 μM, 37° C., 24 hours
# [2] = test system: IL-10 in serum of mice administered with LPS; assay: Serum IL-10 in LPS-administered mice, ANO i.v. (Experiment 7); assay type: in vivo, BALB/c mice; conditions: LPS 18 mg/kg i.p., serum two hours after LPS
# Experimental: (§1) More specifically, 18 BALB/c female mice, 9-week-old, commercialized by Japan Charles River, Tokyo, Japan, were randomly divided into three groups, six heads each. An LPS specimen derived from E. coli (055:B5), commercialized by Sigma-Aldrich Corporation, St. Louis, Mo. USA, was dissolved in physiological saline and intraperitoneally administered to all the 6 mice in respective three groups at a dose of 18 mg/kg body weight of LPS (Experiment groups 1 to 3). […] To the six mice of the remaining one group was intravenously administered PBS in a liquid volume of 0.2 mL/head simultaneously with the administration of LPS (Experiment group 1).
# (§2) For the mice in each group, they were collected blood at two hours after the LPS administration, followed by assaying the level of TNF-α, IL-6, IL-10, and IL-12 in each serum and averaging the data for each group. For the assay of the level of TNF-α, the same ELISA as in Experiment 2 was used and for the assay of the level of IL-6, the same ELISA as in Experiment 3 was used. […]
# [3] = physchem; conditions: aqueous buffer
# [4] = test system: BALB/c mice; assay: Acute toxicity test, intraperitoneal (Experiment 20); conditions: mouse, in vivo, ip
# Experimental: As a control, only PBS was intraperitoneally administered to 10 BALB/c mice (6-week-old, female, average weight of 20 g, commercialized by Charles River Laboratories Japan Inc., Tokyo, Japan) at a dose of 1 mL/head, followed by observing the course of the mice for 24 hours.
# [5] = test system: IL-6 in serum of mice administered with LPS; assay: Serum IL-6 in LPS-administered mice, ANO i.v. (Experiment 7); assay type: in vivo, BALB/c mice; conditions: LPS 18 mg/kg i.p., serum two hours after LPS
# Experimental: as §1, §2
# [6] = test system: skin of volunteers irradiated with ultraviolet rays; assay: Volunteer test of creams: pigmentation (visual score, melanin index) after ultraviolet rays; assay type: in vivo, human; conditions: cream thrice a day for 28 days
# Experimental: Melanin index was measured on “CM-700d”, a spectrophotometer commercialized by Konica Minolta Holdings, Inc., Tokyo, Japan.
# In was confirmed that there were no spots and wounds in the inside of the left upper arm in each volunteer. On the day of initiating the test, four sites in the test part of each volunteer were irradiated with 1.5-times of the minimum erythemogenic dose of ultraviolet rays (UVB). The area of the irradiated site was in the range of 1×1 cm applied with each test sample. […]
# From the day of initiating the irradiation of ultraviolet rays until seven days after the initiation, the test parts were visually observed and photographed by a digital camera every day, and the day, on which the erythema in the part irradiated with ultraviolet rays become unobserved, was confirmed and the days until the unobserved day for each creams were averaged and shown in Table 26. At 24 hours after the irradiation of ultraviolet rays, the degree of erythema in the part applied with each cream was scored based on the three grades of “strong (2)”, “no difference (0)”, and “weak (−2)” compared to the part applied with Cream 3, summed up the scores for each cream, and averaged. […] On 28 days after initiating the irradiation of ultraviolet rays, visual judgement on the part irradiated with ultraviolet rays and the melanin index were measured to confirm the degree of pigmentation. […]
# [7] = Body weight of picryl chloride-sensitized mice applied with gels (Experiment 16); conditions: picryl chloride-sensitized NC/Nga mice, throughout the test period
# Experimental: The eight mice in each five groups were sensitized (may be simply called “sensitization”, hereinafter) with picryl chloride (Tokyo Chemical Industry Co., Ltd., Tokyo, Japan) in such a manner of dropping a solution, which had been dissolved in a mixture solution of ethanol and acetone in a volume ratio of 4:1 at a concentration of 5%, on the shaved abdominal skin of the mice and on four footpads in a total volume of 150 μL/mouse, and spreading the solution over the abdominal skin and the foot pads by using a micropipette similarly as above.
# Throughout the test period, the mice were weighed once a week. The judgement of the conditions of skin inflammation was conducted twice a week every Tuesday and Friday from the 3rd induction for the degrees of four items of red flare/bleeding, edema (swelling of earflap), chafing/loss of tissue, and the formation of scar tissue/drying, and scored based on the criterion of four grades shown in Table 17; “0” (symptomless), “1” (mild), “2” (moderate), and “3” (severe). The total scores of each evaluation items for each group were averaged for use as a skin score.
Structure (SMILES),residual percentage [1] [%],IL-10 Concentration ([2]; ANO 68 mg/kg i.v.) [ng/mL],IL-10 Concentration ([2]; ANO 135 mg/kg i.v.) [ng/mL],solubility [3] [mg/mL],LD50 [4],change in appearance after administration [4],IL-6 Concentration ([5]; ANO 68 mg/kg i.v.) [ng/mL],IL-6 Concentration ([5]; ANO 135 mg/kg i.v.),"safeness when applied to the skin (red flare, eczema) [6]",body weight of mice applied with the gel [7]
"Nc1c2ncn([C@@H]3O[C@H](CO)[C@@H](O)[C@H]3O)c2nc[n+]1[O-] [ANO, adenosine N1-oxide]",100,14.1,19.3,~20,"≥ 1,000 mg/kg body weight",no change in appearance,59.1,46.3* ng/mL,"induced no red flare, eczema, etc.",–
"OC[C@H]1O[C@@H](n2cnc3c(O)ncnc32)[C@H](O)[C@@H]1O [IN, inosine]",–,–,–,–,–,–,–,–,–,reduction of increasing rate of their body weights
